Measured values taken from US4335213A (priority 1979, dated 1982).

Tested on: galactose oxidase
Assay: not given
Type: biochemical, Gibberella fujikuroi Y-530929
Details: 25° C., pH 7.0

**Q.** How did the Inhibition rate turn out when `O=[N+]([O-])[O-].[Ag+]` [AgNO3] was run?
**A.** 100%

**Q.** Which Inhibition rate does the source give for `NO` [NH2 OH] here?
**A.** 100%

**Q.** `[N-]=[N+]=[N-].[Na+]` [NaN3] was tested. Which Inhibition rate did it give?
**A.** 94%

**Q.** With `O=C(O)c1cc[c]([Hg][Cl])cc1` [PCMB, parachloromercurybenzoate] as the compound, how does the Inhibition rate read?
**A.** 57%

Same assay, conditions: inhibitor 10^-3 M; 25° C., pH 7.0

**Q.** How did the Inhibition rate turn out when `O=C(O)CN(CCN(CC(=O)O)CC(=O)O)CC(=O)O` [EDTA, ethylenediaminetetraacetic acid] was run?
**A.** 52%

**Q.** Which Inhibition rate does the source give for `c1cnc2c(c1)ccc1cccnc12` [o-phenanthroline] here?
**A.** 68%

Tested on: galactose oxidase
Assay: Substrate specificity of galactose oxidase (quinoneimine colorimetric assay)
Details: not given

**Q.** `O=C(CO)CO` [dihydroxyacetone] was tested. Which “action of the enzyme on the substrate” value did it give?
**A.** acts on

**Q.** For `OC[C@H]1O[C@H](OC[C@H]2OC(O)[C@H](O)[C@@H](O)[C@@H]2O)[C@H](O)[C@@H](O)[C@H]1O` (stereo partly drawn) [melibiose], which “action of the enzyme on the substrate” value is on record?
**A.** acts on

**Q.** `OC[C@H]1O[C@H](OC[C@H]2O[C@H](O[C@]3(CO)O[C@H](CO)[C@@H](O)[C@@H]3O)[C@H](O)[C@@H](O)[C@@H]2O)[C@H](O)[C@@H](O)[C@H]1O` [raffinose] was tested. Which “action of the enzyme on the substrate” value did it give?
**A.** acts on
